Test [1] deals with T1, human orexin 1 receptor (hOX1R) (Homo sapiens, UniProt O43613).
T1 construct: expressed in transfected cells; host or cells: Chinese hamster ovary (CHO) cells
T1 sequence (O43613 1-425): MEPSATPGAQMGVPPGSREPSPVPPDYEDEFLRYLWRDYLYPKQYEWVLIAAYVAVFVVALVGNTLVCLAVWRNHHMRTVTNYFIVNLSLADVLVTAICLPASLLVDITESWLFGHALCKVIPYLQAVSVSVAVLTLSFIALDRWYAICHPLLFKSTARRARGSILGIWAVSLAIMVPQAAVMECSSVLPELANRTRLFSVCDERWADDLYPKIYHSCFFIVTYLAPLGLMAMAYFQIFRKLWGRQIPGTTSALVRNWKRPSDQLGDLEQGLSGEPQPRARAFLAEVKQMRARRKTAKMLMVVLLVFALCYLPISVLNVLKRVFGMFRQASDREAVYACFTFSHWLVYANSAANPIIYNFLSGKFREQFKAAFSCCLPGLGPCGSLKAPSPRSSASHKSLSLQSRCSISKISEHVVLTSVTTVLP
In words: Measurement of orexin antagonist activity (intracellular Ca2+ fluorescence, FDSS) in CHO cells expressing hOX1R. In kind it is cell-based. The conditions noted are these: CHO cells forcibly expressing hOX1R; ligand (two-amino-acid-substituted human orexin-A) 300 pM; Fluo 4-AM; read-out: IC50 value OX1. The protocol: (§1) The antagonist activity of a test compound against the human orexin 1 receptor (hOX1R) or orexin 2 receptor (hOX2R) was measured by the method described in the document (Toshikatsu Okumura et al., Biochemical and Biophysical Research Communications, 280, 976-981, 2001) with appropriate modification. Chinese hamster ovary (CHO) cells forcibly expressing hOX1R or hOX2R were seeded into each well of a 96-well Black clear bottom plate (Nunc A/S) in the amount of 20000 cells per well and were cultured in a Ham's F-12 medium (Invitrogen, Inc.) containing 0.1 mM MEM non-essential amino acids (Invitrogen, Inc.), 0.5 mg/mL G418 (Invitrogen, Inc.), and 10% fetal calf serum (Invitrogen, Inc.) at 37° C. in 5% CO2 for 16 hours. The medium was removed, and then added to each well was 100 μL of an assay buffer (pH 7.4) containing 0.5 μM Fluo 4-AM ester (Dojindo Laboratories), wherein the buffer was composed of 25 mM HEPES (Dojindo Laboratories), a Hanks' balanced salt solution (Invitrogen, Inc.), 0.1% bovine serum albumin (Sigma-Aldrich Co., LLC.), 2.5 mM probenecid (Sigma-Aldrich Co., LLC.), and 200 μg/mL Amaranth (Sigma-Aldrich Co., LLC.), followed by incubation at 37° C. in 5% CO2 for 60 min. The assay buffer containing Fluo 4-AM ester was removed, and then 150 μL of an assay buffer solution containing 10 mM of the test compound dissolved in dimethyl sulfoxide was added to each well, followed by incubation for 30 min.
(§2) A peptide (Pyr-[…]NH2: Peptide Institute, Inc.), which is a ligand having substitution of two amino acids in human orexin-A, was diluted with an assay buffer to a final concentration of 300 pM for hOX1R and to a final concentration of 3 nM for hOX2R. The reaction was started by adding 50 μL of this ligand solution to each well. The reaction was monitored by measuring the fluorescence of each well at each 1 second for 3 min with a Functional Drug Screening System (FDSS manufactured by Hamamatsu Photonics K.K.), and the antagonist activity was determined based on the maximum fluorescence value as an index of the intracellular Ca^2+ concentration. The antagonist activity of a test compound was calculated by assuming that the fluorescence value of the well containing only a dilution buffer was 100% and that the fluorescence value of the well containing a buffer not containing the ligand or any test compound was 0%. The 50% inhibitory concentration (IC50 value) of a test compound was determined from fluorescence values at various concentrations of the test compound.

Test [2] has as its target T2, human orexin 2 receptor (hOX2R) (Homo sapiens, UniProt O43614).
T2 construct: expressed in transfected cells; host or cells: Chinese hamster ovary (CHO) cells
T2 sequence (O43614 1-444): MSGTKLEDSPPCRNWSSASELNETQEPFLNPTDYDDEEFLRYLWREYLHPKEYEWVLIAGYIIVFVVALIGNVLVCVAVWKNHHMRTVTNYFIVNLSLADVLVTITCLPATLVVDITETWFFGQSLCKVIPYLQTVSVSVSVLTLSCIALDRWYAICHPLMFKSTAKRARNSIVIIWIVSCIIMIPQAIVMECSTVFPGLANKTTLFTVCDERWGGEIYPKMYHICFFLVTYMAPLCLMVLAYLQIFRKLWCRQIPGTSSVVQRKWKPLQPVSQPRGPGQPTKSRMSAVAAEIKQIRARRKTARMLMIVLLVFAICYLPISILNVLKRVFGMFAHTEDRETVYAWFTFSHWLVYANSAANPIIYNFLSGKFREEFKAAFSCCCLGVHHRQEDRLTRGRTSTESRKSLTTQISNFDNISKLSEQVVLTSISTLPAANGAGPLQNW
In words: Measurement of orexin antagonist activity (intracellular Ca2+ fluorescence, FDSS) in CHO cells expressing hOX2R. In kind it is cell-based. The note with it: CHO cells forcibly expressing hOX2R; ligand (two-amino-acid-substituted human orexin-A) 3 nM; Fluo 4-AM; read-out: IC50 value OX2. As for the experimental part: as §1, §2

Take `CN(CCc1noc(-c2ccc(F)c(F)c2)n1)C(=O)c1ccccc1-n1nccn1` [Example 32, N-{2-[5-(3,4-difluorophenyl)-1,2,4-oxadiazol-3-yl]ethyl}-N-methyl-2-(2H-1,2,3-triazol-2-yl) benzamide]: the results for the IC50 in test [1] and in test [2] were 14.8 nM and 133 nM, respectively.

In the case of `CCN(CCc1ccn(-c2ccc(F)cn2)n1)C(=O)c1cc(F)ccc1-n1nccn1` [Example 7, N-Ethyl-N-{2-[1-(5-fluoropyridin-2-yl)-1H-pyrazol-3-yl]ethyl}-5-fluoro-2-(2H-1,2,3-triazol-2-yl)benzamide], the IC50 in test [1] is 11 nM; in test [2] it was 24.9 nM.

In the case of `CCN(CCc1noc(-c2ccc(F)c(F)c2)n1)C(=O)c1cc(F)ccc1-c1ncccn1` [Example 43, N-{2-[5-(3,4-difluorophenyl)-1,2,4-oxadiazol-3-yl]ethyl}-N-ethyl-5-fluoro-2-(pyrimidin-2-yl) benzamide], the IC50 in test [1] is 61 nM; in test [2] it was 69.8 nM.

`CCN(CCc1noc(-c2ccc(F)cc2)n1)C(=O)c1cc(C)ccc1-c1ncccn1` [Example 39, N-ethyl-N-{2-[5-(4-fluorophenyl)-1,2,4-oxadiazol-3-yl]ethyl}-5-methyl-2-(pyrimidin-2-yl)benzamide]: the figures for the IC50 in test [1] and in test [2] were 0.7 nM and 17.3 nM, respectively.

With `CCN(CCc1noc(-c2ccc(F)cc2)n1)C(=O)c1ccccc1-n1nccn1` [Example 41, N-ethyl-N-{2-[5-(4-fluorophenyl)-1,2,4-oxadiazol-3-yl]ethyl}-2-(2H-1,2,3-triazol-2-yl) benzamide], the values for the IC50 in test [1] and in test [2] were 1.6 nM and 31.6 nM, respectively.

With `CCN(CCc1ccn(-c2ccc(F)cn2)n1)C(=O)c1cc(C)ccc1-n1nccn1` [Example 8, N-Ethyl-N-{2-[1-(5-fluoropyridin-2-yl)-1H-pyrazol-3-yl]ethyl}-5-methyl-2-(2H-1,2,3-triazol-2-yl)benzamide], the IC50 was 1.8 nM in test [1] and 3.8 nM in test [2].

On to `CCN(CCc1noc(-c2ccc(F)c(F)c2)n1)C(=O)c1cc(C)ccc1-n1nccn1` [Example 37, N-ethyl-N-{2-[5-(3,4-difluorophenyl)-1,2,4-oxadiazol-3-yl]ethyl}-5-methyl-2-(2H-1,2,3-triazol-2-yl)benzamide], for which the IC50 in test [1] was 1.1 nM; in test [2], 2 nM.

Turning to `CCN(CCc1ccn(-c2ccc(F)cn2)n1)C(=O)c1c(F)cccc1-n1nccn1` [Example 18, N-ethyl-2-fluoro-N-{2-[1-(5-fluoropyridin-2-yl)-1H-pyrazol-3-yl]ethyl}-2-(2H-1,2,3-triazol-2-yl) benzamide], the results for the IC50 in test [1] and in test [2] were 1.6 nM and 6.3 nM, respectively.

For the compound `CCN(CCc1noc(-c2ccc(F)cc2)n1)C(=O)c1cc(F)ccc1-c1ncccn1` [Example 40, N-ethyl-5-fluoro-N-{2-[5-(4-fluorophenyl)-1,2,4-oxadiazol-3-yl]ethyl}-2-(pyrimidin-2-yl) benzamide], the results for the half-inhibitory concentration (IC50) in test [1] and in test [2] were 1.7 nM and 78 nM, respectively.

Take `CCN(CCc1ccn(-c2ccc(F)cn2)n1)C(=O)c1c(F)cccc1-c1ncccn1` [Example 21, N-ethyl-2-fluoro-N-{2-[1-(5-fluoropyridin-2-yl)-1H-pyrazol-3-yl]ethyl}-6-(pyrimidin-2-yl) benzamide]: the IC50 in test [1] was found to be 11.6 nM; in test [2], 50.8 nM.

For `CCN(CCc1ccn(-c2ccc(F)cc2)n1)C(=O)c1ccccc1-c1ncccn1` [Example 30, N-ethyl-N-{2-[1-(4-fluorophenyl)-1H-pyrazol-3-yl]ethyl}-2-(pyrimidine-2-yl)benzamide], the values for the IC50 in test [1] and in test [2] were 1.9 nM and 13.2 nM, respectively.

On to `CCN(CCc1cn(-c2ccc(F)cn2)cn1)C(=O)c1cc(C)ccc1-n1nccn1` [Example 13, N-Ethyl-N-{2-[1-(5-fluoropyridin-2-yl)-1H-imidazol-4-yl]ethyl}-5-methyl-2-(2H-1,2,3-triazol-2-yl)benzamide], for which the IC50 in test [1] was 8.9 nM; in test [2] it was 3.4 nM.

With `CCN(CCc1ccn(-c2ccc(F)cn2)n1)C(=O)c1ccccc1-n1nccn1` [Example 4, N-Ethyl-N-{2-[1-(5-fluoropyridin-2-yl)-1H-pyrazol-3-yl]ethyl}-2-(2H-1,2,3-triazol-2-yl)benzamide], the half-inhibitory concentration (IC50) was 0.5 nM in test [1] and 2.4 nM in test [2].

For `Cc1ccc(-n2nccn2)c(C(=O)N(C)CCc2cc(-c3ccc(F)cn3)on2)c1` [Example 9, N-{2-[5-(5-Fluoropyridin-2-yl)-1,2-oxazol-3-yl]ethyl}-N,5-dimethyl-2-(2H-1,2,3-triazol-2-yl)benzamide], the values for the IC50 in test [1] and in test [2] were 16.7 nM and 77.4 nM, respectively.

With `CCN(CCc1ccn(-c2ccc(F)cn2)n1)C(=O)c1cc(F)ccc1-c1ncccn1` [Example 20, N-ethyl-5-fluoro-N-{2-[1-(5-fluoropyridin-2-yl)-1H-pyrazol-3-yl]ethyl}-2-(pyrimidin-2-yl) benzamide], the IC50 in test [1] was 1.7 nM; in test [2], 13.2 nM.

With `CCN(CCc1cc(-c2ccc(F)cn2)no1)C(=O)c1cc(C)ccc1-n1nccn1` [Example 11, N-Ethyl-N-{2-[3-(5-fluoropyridin-2-yl)-1,2-oxazol-5-yl]ethyl}-5-methyl-2-(2H-1,2,3-triazol-2-yl)benzamide], the results for the IC50 in test [1] and in test [2] were 17 nM and 26.4 nM, respectively.

Turning to `CCN(CCc1ccn(-c2cccc(C(F)(F)F)n2)n1)C(=O)c1ccccc1-n1nccn1` [Example 24, N-ethyl-2-(2H-1,2,3-triazol-2-yl)-N-(2-{1-[6-(trifluoromethyl)pyridin-2-yl]-1H-pyrazol-3-yl}ethyl)benzamide], the figures for the IC50 in test [1] and in test [2] were 17.8 nM and 24.8 nM, respectively.

With `CCN(CCc1cnn(-c2ccc(F)cn2)c1)C(=O)c1ccccc1-n1nccn1` [Example 3, N-Ethyl-N-{2-[1-(5-fluoropyridin-2-yl)-1H-pyrazol-4-yl]ethyl}-2-(2H-1,2,3-triazol-2-yl)benzamide], the IC50 in test [1] amounted to 4.2 nM; in test [2], 60.6 nM.

In the case of `Cc1ccc(-n2nccn2)c(C(=O)N(C)CCc2noc(-c3ccc(F)c(F)c3)n2)c1` [Example 36], the IC50 in test [1] turned out to be 1.9 nM; in test [2], 5.9 nM.

In the case of `CCN(CCc1noc(-c2ccc(F)cn2)n1)C(=O)c1cc(C)ccc1-n1nccn1` [Example 12, N-Ethyl-N-{2-[5-(5-fluoropyridin-2-yl)-1,2,4-oxadiazol-3-yl]ethyl}-5-methyl-2-(2H-1,2,3-triazol-2-yl)benzamide], the IC50 stood at 1.9 nM in test [1] and 11.6 nM in test [2].

For `CN(CCc1ccn(-c2ccc(F)cn2)n1)C(=O)c1cc(Cl)ccc1-n1nccn1` [Example 16, 5-Chloro-N-{2-[1-(5-fluoropyridin-2-yl)-1H-pyrazol-3-yl]ethyl}-N-methyl-2-(2H-1,2,3-triazol-2-yl)benzamide], the IC50 in test [1] came out at 3.3 nM; in test [2], 30.5 nM.

Values taken from patent US20140081025A1, “HETEROAROMATIC RING DERIVATIVE” (TAISHO PHARMACEUTICAL CO., LTD., priority 2011, published 2014).
